# Measurements published in patent US20130231312A1, “TREATMENT OF TYPE II DIABETES AND DIABETES-ASSOCIATED DISEASES WITH SAFE CHEMICAL MITOCHONDRIAL UNCOUPLERS” (priority 2010, published 2013).
# How the values were obtained:
# db/db mice [1] = assay: Acute I.P. CSAA treatment, blood glucose in diabetic db/db mice; assay type: in vivo; conditions: 100 microgram/mouse I.P.
# Text: (§1) The 5-week old db/db mice and the C57/B16 mice were purchased from Jackson Laboratory and housed in the vivarium of UMDNJ-RWJMS. […] For food intake experiments, sets of mice were housed individually in metabolic cages (Nalgene) with free access to food and water. Food cups and food scattered in the runway to the cups were weighed daily to determine food intake. For mouse tissue studies, mice were sacrificed by decapitation, and the tissues of interesting were obtained.
# (§2) Blood glucose was determined using OneTouch UltraSmart blood glucose monitoring system (Lifescan), and the insulin levels were measured by ultra sensitive mouse insulin ELISA kit (Crystal Chem Inc.), following the manufacturer's instructions.
# [2] = test system: high-fat diet induced pre-diabetic C57/B16 mice; assay: Acute I.P. treatment, blood glucose in high-fat diet induced pre-diabetic mice; assay type: in vivo; conditions: 100 microgram/mouse I.P., starved 5 hours
# Text: as §1, §2
# AMPK [3] = assay: Immunoblotting of phosphorylated AMPK in liver after acute I.P. CSAA; assay type: in vivo; conditions: mouse liver, acute 100 microgram/mouse I.P., 0, 2, 4 hours
# Protocol: (§3) Immunoblotting assays were carried out according to standard protocol. The sources of the antibodies are: AMPK antibody (Cell Signaling Technology), Thr-172-phosphorylated AMPK antibody (Cell Signaling Technology), Ran antibody (C-20, Santa Cruz).
# C57/B16 mice = assay: Glucose uptake assay with 3H 2-deoxyglucose in tissues; assay type: in vivo; conditions: acute 100 microgram/mouse I.P., 3H-2-deoxyglucose 1.5 hours later
# Protocol: 1.5 hours later, ^3H-2-deoxyglucose (0.5 microcurrie/gram of body weight) was injected through I.P. route. 30 minutes later, mice were treated with anesthetics and perfused with PBS. Mice were then sacrificed and tissue was extracted for measurement of ^3H-2-deoxyglucose accumulation (normalized against tissue mass).
# db/db mice [4] = assay: Chronic oral CSAA treatment of db/db diabetic mice; assay type: in vivo, mouse
# Text: as §1, §2
# [5] = test system: C57/B16 mice fed with high-fat diet; assay: Chronic oral CSAA treatment of high-fat diet induced pre-diabetic mice; assay type: in vivo, mouse
# Text: as §1, §2
# [6] = test system: C57/B16 mice fed with high-fat diet; assay: Glucose tolerance assay after chronic oral CSAA; assay type: in vivo, mouse; conditions: high-fat diet containing 1500 ppm CSAA for 9 weeks
# Protocol: (§4) For glucose tolerance tests, mice were starved overnight and injected I.P. with 20% glucose at a dose of 2 g/kg body weight. Blood was obtained from the tail at time points 0, 15, 30, 60, 90, and 120 min for glucose measurement. For insulin tolerance tests, mice were starved for 5 h and injected I.P. with 0.75 U/kg body weight recombinant human insulin (Eli Lilly). Blood was obtained from the tail at time points 0, 15, 30, 60, 90, and 120 min for glucose measurement.
# [7] = test system: C57/B16 mice fed with high-fat diet; assay: Insulin tolerance assay after chronic oral CSAA; assay type: in vivo, mouse; conditions: high-fat diet containing 1500 ppm CSAA for 9 weeks
# Protocol: as §4
# AMPK [8] = assay: Immunoblotting of phosphorylated AMPK in liver after chronic oral CSAA; assay type: in vivo, mouse; conditions: mice under high-fat diet
# Protocol: as §3
# [9] = Chronic I.P. CSAA injection, high-fat diet induced body weight gain and food uptake; assay type: in vivo; conditions: daily I.P. 100 μg/mouse
# Text: as §1
# The other 12 mice were injected daily with vehicle only (PBS). The body weight was measured twice a week and the net body weight gain for each mouse was determined. The average weight gain in each group over the experimental period was plotted. […] The food uptake levels were measured daily with metabolic cages from the day 15 to day 29 and the average daily food uptake of each group was calculated.
# [10] = test system: mitochondria isolated from mouse liver; assay: Mitochondrial uncoupling assay with isolated mitochondria (oxygen consumption, Oxygraph); assay type: biochemical; conditions: oligomycin 5 μg/ml
# Protocol: For mitochondrial uncoupling assay with isolated mitochondria: Mitochondria were isolated from mouse liver. 1.0 mg of mitochondria in a volume of 0.9 ml of respiration buffer was analyzed for oxygen consumption in the presence of mitochondrial substrate as well as the various inhibitors with an Oxygraph System (Hansatech Instrument, Norfolk, UK). The final concentrations of the various chemicals added into the respiration buffer are as follows: succinate, 5 mM; ADP, 125 μM; oligomycin, 5 μg/ml; KCN, 2 mM)
# NIH-3T3 cells [11] = assay: Mitochondrial membrane potential (TMRE staining) in cultured cells; assay type: cell-based, mouse
# Protocol: For mitochondrial uncoupling activity analysis with the cultured cells, the NIH-3T3 were culture to 90% confluence. […] The cells were then treated with TMRE (Tetramethylrhodamine ethyl ester perchlorate) to a final concentration of 100 nM, incubate for 15 minutes. The cells were then washed twice with PBS, and the pictures were taken under microscope.
# NIH-3T3 cells [12] = assay: Cellular oxygen consumption (BD Oxygen Biosensor System); assay type: cell-based, mouse
# Protocol: (§5) BD™ Oxygen Biosensor System was used to measure the cellular oxygen consumption. NIH-3T3 cells were cultured overnight to log phase, then seeded in oxygen biosensor 96-well plate at the density of 20000 cells per well in DMEM medium. […] Oxygen consumptions (decrease in oxygen concentrations) were indicated by generation of fluorescent signals which were initially quenched by oxygen. Cellular ATP concentrations were measured with the ENLITEN® ATP Assay System and normalized against cell number.
# NIH-3T3 cells [13] = assay: Cellular ATP concentrations (ENLITEN ATP Assay System); assay type: cell-based, mouse; conditions: CSAA 1 μM
# Protocol: as §5
# hepatocytes = conditions: high-fat diet containing 1500 ppm CSAA for 10 weeks
# Text: For mouse liver histological study, the mice sacrificed by decapitation. Liver slices were fixed with buffered formalin (Surgipath Medical Industries, Inc.) and embedded in paraffin. Tissue slides were stained with hematoxylin and eosin (H&E) for detection of lipid droplets in tissue samples. Pictures were taken with a Universal Microscope Axioplan 2 imaging system (Carl Zeiss) with phase contrast objectives.
# [14] = among the first 100,000 persons treated; cited from earlier work
# mitochondria = conditions: cited from earlier work
# [15] = stated for both mouse strains (FIG. 1)
# [16] = high-fat diet containing 1500 ppm CSAA for 8 weeks
# [17] = NIH-3T3 cells, 2 hours treatment, TMRE
structure (smiles),measurement,setting,value
"NCCO.O=C(Nc1ccc([N+](=O)[O-])cc1Cl)c1cc(Cl)ccc1O [CSAA, 5-chloro-salicyl-(2-chloro-4-nitro) anilide 2-aminoethanol salt]",time after treatment at which blood glucose concentrations were lowered,db/db mice [1]; [15],~1 h
same,time until which blood glucose lowering remained effective,db/db mice [1]; [15],about 4 hours
same,reduction in blood glucose as compared to the control,"db/db mice [1]; db/db mice, starved 5 hours",30%
same,effect on blood glucose concentration (hypoglycemic activity),[2],dramatic decrease in blood glucose concentration
same,levels of the phosphorylated AMPK,AMPK [3],dramatically increased
same,"glucose uptake rates in liver, muscles, kidney, and lungs",C57/B16 mice,significantly increased
same,food intake rates versus mice fed normal food,db/db mice [4]; 1500 ppm in food,not significantly different
same,body weight and adiposity versus control mice,db/db mice [4]; oral CSAA (data not shown),not different from the control mice
same,fasting blood glucose levels versus non-CSAA treated mice at later time,db/db mice [4]; oral treatment beyond two weeks (data not shown),remained significantly lower
same,fasting blood glucose,"db/db mice [4]; two week oral treatment, 1500 ppm in AIN-93M food",reduced the fasting blood glucose of the db/db mice to almost normal levels
same,fasting blood glucose,[5]; [16],completely prevented the increase of fasting blood glucose
same,fasting insulin concentrations versus control group,[5]; [16],significantly lower
same,food uptake,"[5]; high-fat diet containing 1500 ppm CSAA, weeks 7 to 8",no effect
same,body weight and adiposity versus control mice,[5]; high-fat diet with oral CSAA (data not shown),not different from the control mice
same,insulin sensitivity by glucose tolerance assay,[6],significantly increased insulin sensitivity
same,insulin sensitivity by insulin tolerance assay,[7],significantly increased insulin sensitivity
same,AMPK activity in liver,AMPK [8],chronically elevated
same,food uptake rate versus vehicle group,[9]; day 15 to day 29,higher food uptake rate
same,weight gain induced by high-fat diet,[9]; mice aged 8 months on high-fat diet,reduces the weight gain
same,mitochondrial oxygen consumption in the presence of oligomycin,[10],still effectively promoted mitochondrial oxygen consumption
same,earliest time at which dissipation of mitochondrial membrane potential is seen,"NIH-3T3 cells [11]; NIH-3T3 cells, 2 μM CSAA",5 min
same,concentration at which reduction of mitochondrial membrane potential starts,NIH-3T3 cells [11]; [17],500 nM
same,concentration for full uncoupling of mitochondria,NIH-3T3 cells [11]; [17],around 5 micromolar
same,concentration range at which mitochondria are uncoupled in cultured cells,NIH-3T3 cells [11]; cultured cells,high nanomolar to low micromolar range
same,cellular oxygen consumption,NIH-3T3 cells [12]; CSAA 1 μM,dramatically stimulated
same,effect of oligomycin co-treatment on CSAA-stimulated oxygen consumption,NIH-3T3 cells [12]; CSAA 1 μM and oligomycin 5 μg/ml,did not significantly affect
same,steady-state ATP concentrations in cells,NIH-3T3 cells [13],does not affect
same,lipid load in hepatocytes,hepatocytes,dramatically reduced
"O=[N+]([O-])c1ccc(O)c([N+](=O)[O-])c1 [DNP, 2,4-dinitrophenol]",fatalities due to hyperthermia,[14],two fatalities
same,concentrations at which the mitochondrial uncoupler functions,mitochondria,mini molar concentrations
